Species on record: Rattus norvegicus
Assay: Open TG-GATES - Regimen: Single
Assay type: toxicity, organism-based, Sprague-Dawley
Design: regimen Single, gender Male, age 6 weeks
Settings: in vivo, ip, 0.01 mg/kg, route intraperitoneal injection, dose 10 ug/Kg, dose level High; for APTT / Bas / Eos / Fbg / Hb / Ht / Lym / MCH / MCHC / MCV / Mono / Neu / PT / Plat / RBC / Ret / WBC: tissue Blood; for KIDNEY_L / KIDNEY_R / KIDNEY_TOTAL: tissue Kidney; for LIVER: tissue Liver; for A/G / ALP / ALT / AST / BUN / CRE / Ca / Cl / DBIL / GLC / IP / K / LDH / Na / PL / RALB / TBIL / TC / TG / TP / gamma-GTP: tissue Plasma

H-KGDRLS-OH [TNF-ALPHA]
TERMINAL_BW (3 h): 199.5 g
APTT (3 h): 15.7 s
Bas (3 h): 0.2%
Eos (3 h): 0.4%
Fbg (3 h): 279.2 mg/dL
Hb (3 h): 13.2 g/dL
Ht (3 h): 40.1%
Lym (3 h): 75%
MCH (3 h): 21.5 pg
MCHC (3 h): 32.8%
MCV (3 h): 65.3 fL
Mono (3 h): 4.4%
Neu (3 h): 18.8%
PT (3 h): 15.4 s
Plat (3 h): 115.5 x10_4/uL
RBC (3 h): 615.2 x10_4/ul
Ret (3 h): 9.2%
WBC (3 h): 82.2 x10_2/uL
KIDNEY_L (3 h): 0.9 g
KIDNEY_R (3 h): 0.9 g
KIDNEY_TOTAL (3 h): 1.7 g
LIVER (3 h): 8.8 g
A/G (3 h): 0.9
ALP (3 h): 1307.2 IU/L
ALT (3 h): 43.6 IU/L
AST (3 h): 79.2 IU/L
BUN (3 h): 10.4 mg/dL
CRE (3 h): 0.2 mg/dL
Ca (3 h): 10.7 mg/dL
Cl (3 h): 105.8 meq/L
DBIL (3 h): 0.01 mg/dL
GLC (3 h): 167 mg/dL
IP (3 h): 9.8 mg/dL
K (3 h): 4 meq/L
LDH (3 h): 71 IU/L
Na (3 h): 142.4 meq/L
PL (3 h): 141.2 mg/dL
RALB (3 h): 2.4 g/dL
TBIL (3 h): 0.062 mg/dL
TC (3 h): 77.8 mg/dL
TG (3 h): 50.4 mg/dL
TP (3 h): 5.2 g/dL
gamma-GTP (3 h): 1.2 IU/L
TERMINAL_BW (6 h): 194.4 g
APTT (6 h): 18.1 s
Bas (6 h): 0%
Eos (6 h): 0.2%
Fbg (6 h): 349.4 mg/dL
Hb (6 h): 13.2 g/dL
Ht (6 h): 40.3%
Lym (6 h): 62.4%
MCH (6 h): 21 pg
MCHC (6 h): 32.9%
MCV (6 h): 63.8 fL
Mono (6 h): 2.6%
Neu (6 h): 34.2%
PT (6 h): 15 s
Plat (6 h): 106.9 x10_4/uL
RBC (6 h): 632.2 x10_4/ul
Ret (6 h): 7.9%
WBC (6 h): 58.5 x10_2/uL
KIDNEY_L (6 h): 0.9 g
KIDNEY_R (6 h): 0.9 g
KIDNEY_TOTAL (6 h): 1.8 g
LIVER (6 h): 8.5 g
A/G (6 h): 0.8
ALP (6 h): 1422.6 IU/L
ALT (6 h): 37.6 IU/L
AST (6 h): 73 IU/L
BUN (6 h): 8.6 mg/dL
CRE (6 h): 0.2 mg/dL
Ca (6 h): 10.8 mg/dL
Cl (6 h): 105.4 meq/L
DBIL (6 h): 0.008 mg/dL
GLC (6 h): 170.8 mg/dL
IP (6 h): 9.8 mg/dL
K (6 h): 3.8 meq/L
LDH (6 h): 67.2 IU/L
Na (6 h): 143.2 meq/L
PL (6 h): 162.2 mg/dL
RALB (6 h): 2.5 g/dL
TBIL (6 h): 0.06 mg/dL
TC (6 h): 91.8 mg/dL
TG (6 h): 40.2 mg/dL
TP (6 h): 5.4 g/dL
gamma-GTP (6 h): 1.4 IU/L
TERMINAL_BW (9 h): 194.6 g
APTT (9 h): 19.4 s
Bas (9 h): 0%
Eos (9 h): 0.6%
Fbg (9 h): 371 mg/dL
Hb (9 h): 13.4 g/dL
Ht (9 h): 40.6%
Lym (9 h): 69.8%
MCH (9 h): 21.4 pg
MCHC (9 h): 32.9%
MCV (9 h): 64.8 fL
Mono (9 h): 1.8%
Neu (9 h): 26.8%
PT (9 h): 15.3 s
Plat (9 h): 105.5 x10_4/uL
RBC (9 h): 627.6 x10_4/ul
Ret (9 h): 8.3%
WBC (9 h): 66.7 x10_2/uL
KIDNEY_L (9 h): 0.9 g
KIDNEY_R (9 h): 0.9 g
KIDNEY_TOTAL (9 h): 1.7 g
LIVER (9 h): 7.9 g
A/G (9 h): 0.8
ALP (9 h): 1174.4 IU/L
ALT (9 h): 32.6 IU/L
AST (9 h): 62.8 IU/L
BUN (9 h): 7.2 mg/dL
CRE (9 h): 0.2 mg/dL
Ca (9 h): 10.8 mg/dL
Cl (9 h): 104.4 meq/L
DBIL (9 h): 0.004 mg/dL
GLC (9 h): 167.2 mg/dL
IP (9 h): 10.2 mg/dL
K (9 h): 3.9 meq/L
LDH (9 h): 55.2 IU/L
Na (9 h): 141.6 meq/L
PL (9 h): 159.2 mg/dL
RALB (9 h): 2.5 g/dL
TBIL (9 h): 0.064 mg/dL
TC (9 h): 96.6 mg/dL
TG (9 h): 22.2 mg/dL
TP (9 h): 5.5 g/dL
gamma-GTP (9 h): 1.4 IU/L
TERMINAL_BW (24 h): 211.6 g
APTT (24 h): 15.6 s
Bas (24 h): 0.2%
Eos (24 h): 0.8%
Fbg (24 h): 323.4 mg/dL
Hb (24 h): 13.1 g/dL
Ht (24 h): 40.2%
Lym (24 h): 80.4%
MCH (24 h): 21.5 pg
MCHC (24 h): 32.6%
MCV (24 h): 65.8 fL
Mono (24 h): 3%
Neu (24 h): 15%
PT (24 h): 15.5 s
Plat (24 h): 116.4 x10_4/uL
RBC (24 h): 610.2 x10_4/ul
Ret (24 h): 8.5%
WBC (24 h): 77.3 x10_2/uL
KIDNEY_L (24 h): 1 g
KIDNEY_R (24 h): 0.9 g
KIDNEY_TOTAL (24 h): 1.9 g
LIVER (24 h): 9.8 g
A/G (24 h): 0.8
ALP (24 h): 1565.6 IU/L
ALT (24 h): 47.8 IU/L
AST (24 h): 69.6 IU/L
BUN (24 h): 15.4 mg/dL
CRE (24 h): 0.2 mg/dL
Ca (24 h): 11.1 mg/dL
Cl (24 h): 106.6 meq/L
DBIL (24 h): 0.012 mg/dL
GLC (24 h): 190 mg/dL
IP (24 h): 8.9 mg/dL
K (24 h): 4.4 meq/L
LDH (24 h): 93.6 IU/L
Na (24 h): 142.2 meq/L
PL (24 h): 156 mg/dL
RALB (24 h): 2.6 g/dL
TBIL (24 h): 0.042 mg/dL
TC (24 h): 83.6 mg/dL
TG (24 h): 76.2 mg/dL
TP (24 h): 5.7 g/dL
gamma-GTP (24 h): 1 IU/L

Reference: ChEMBL document CHEMBL3885861, “Open TG-GATES”
